# Measured values reported in PubChem BioAssay AID1963850 (Molecular Pharmacology Branch, DTP, NCI, 2024).
# “And” between values parts separate entries of the source, which are not always exact repeats. Equal entries are not always repeated.
# Tested on: 192522-019-R-J2-PDC complex tumor spheroid viability
# Experiment: Anticancer human tumor 192522-019-R-J2-PDC patient-derived colon adenocarcinoma cell line growth inhibition [POLQ]
# Settings: for viability, T/C: stronger effect = lower value
# Experimental: Multicellular complex tumor spheroid response to Polymerase (POL) inhibitors (novobiocin, ART-558, RP6685) in combination with a variety of drugs and investigational agents in selected tumor cell lines
# The POL inhibitors (novobiocin, ART-558, and RP6685) were evaluated both individually and in combination with standard of care and investigational anticancer small molecules within a complex spheroid model of solid tumors. . Complex spheroids include a stromal component modeled by human endothelial cells (HUVEC) and fibroblasts modeled by human mesenchymal stem cells (MSCs). The concentration ranges selected for each drug and investigational agent were based upon clinically achievable concentrations if the clinical Cmax of the agent was known.
# Compounds. The drugs and investigational agents: novobiocin (NSC847541), ART-558 (NSC835418), RP-6685 (NSC848927), peposertib (NSC802822), ceralasertib (NSC780249), elimusertib (NSC800525), camonsertib (NSC841442), AZD-1390 (NSC803789), olaparib (NSC753686), talazoparib (NSC767125), rucaparib (NSC756644), sotorasib (NSC818433), MRTX-1133 (NSC836407), SN-38 (NSC673596), topotecan (NSC609699), epotoside (NSC141540), doxorubicin (NSC123127), gemcitabine (NSC613327), 5-fluorouracil (NSC19893), paclitaxel (NSC125973), vemurafenib (NSC761431), MSA-2 (NSC828583), SN-011 (NSC837082), adavosertib (NSC754352), prexasertib (NSC758257), carboplatin (NSC241240) and oxaliplatin (NSC266046), were obtained from the National Cancer Institute (NCI) Developmental Therapeutics Program Chemical Repository (21). The FDA-approved anticancer drug set is available from the Developmental Therapeutics Program at https://dtp.cancer.gov/organization/dscb/obtaining/. […] The stock solutions were prepared in dimethyl sulfoxide (DMSO, Sigma-Aldrich, St. Louis, MO, cat. D2650), except for the platinum compounds which were prepared in saline (Quality Biological, Gaithersburg, MD, cat. 114-055-101), at 800-fold the tested concentration and stored at -70 degrees C prior to their use. All drugs and investigational agents were tested over a range starting from a high concentration at or near the clinical Cmax and decreasing in half-log increments. If the clinical Cmax for an agent had not been determined, the highest concentration tested was 10 microM, except for SN-38, which was tested at a high concentration of 1 microM.
# Cell Culture. All cells were maintained in an incubator at 37 degrees C and 5% CO2 with 95% humidity. The PDC lines were cultured according to standard operating procedures established by the NCI PDMR (https://pdmr.cancer.gov). Table 3 of the manuscript, lists the cell lines along with the number of the three cell types plated to form the mct-spheroids and media for tumor cell growth. After thawing, all PDC lines, except 997537-175-T-J1-PDC and 415267-285-R-J2-PDC, were cultured in Matrigel-coated flasks prepared with a working solution of 1X Ham's F-12 nutrient mix, without supplementation (Thermo Fisher Scientific, cat. 11765054), 100 U/mL penicillin-streptomycin (Thermo Fisher Scientific, cat. 15140122), and 2.5% Matrigel (Corning Inc., Corning, NY, cat. 354248) for the first three passages. The two PDC lines 997537-175-T-J1-PDC and 415267-285-R-J2-PDC were cultured on uncoated flasks. The 857933-349-R-J2-PDC line was cultured in 6C/Colon 1B media containing advanced DMEM/F-12 (Thermo Fisher Scientific, cat. 12634028), 10 mM HEPES (Thermo Fisher Scientific, cat. 15630080), 1X GlutaMAX supplement (Thermo Fisher Scientific, cat. 35050061), 0.1 mg/mL primocin (InvivoGen, San Diego, CA, cat. ant-pm-2), 10% defined fetal bovine serum, heat inactivated (HyClone Laboratories Inc., Logan, UT, cat. SH30070.03HI), 50% L-WRN conditioned media (ATCC, cat. CRL-3276), 1.25 mM N-Acetyl-L-cysteine (Sigma-Aldrich, cat. A9165), 10 mM nicotinamide (Sigma-Aldrich, cat. N0636), 1X B-27 supplement (Thermo Fisher Scientific, cat. 17504044), 1X N-2 supplement (Thermo Fisher Scientific, cat. […]
# 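Note: spheroids exposed to drugs for seven days before reading.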
# 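Throughout, for viability, T/C: 100% = DMSO vehicle control viability in luminescence.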
smiles,measurement,setting,value
O=C(c1cc(Cc2n[nH]c(=O)c3ccccc23)ccc1F)N1CCN(C(=O)C2CC2)CC1,"viability, T/C",compound 0.0316 µM,99.6% and 98.7% and 100%
same,"viability, T/C",compound 0.1 µM,99% and 96.3% and 98.5%
same,"viability, T/C",compound 0.316 µM,96.2% and 100% and 101%
same,"viability, T/C",compound 1 µM,91.8% and 106% and 102%
same,"viability, T/C",compound 3.16 µM,97.4% and 116% and 113%
same,"viability, T/C",compound 10 µM,102% and 100% and 101%
same,IC50,curve of compound,> 10 µM
C#Cc1c(F)ccc2cc(O)cc(-c3ncc4c(N5CC6CCC(C5)N6)nc(OCC56CCCN5CC(F)C6)nc4c3F)c12 (stereo unspecified) + Cc1cccc(N(C)C(=O)C2C(O)CCN2c2nc(C)cc(C(F)(F)F)c2C#N)c1,IC50,"curve of first compound, second compound 0.0316 µM",> 10 µM
same,IC50,"curve of first compound, second compound 0.1 µM",> 10 µM
same,IC50,"curve of first compound, second compound 0.316 µM",> 10 µM
same,IC50,"curve of first compound, second compound 1 µM",> 10 µM
same,IC50,"curve of first compound, second compound 3.16 µM",> 10 µM
same,IC50,"curve of first compound, second compound 10 µM",> 10 µM
same,"viability, T/C","second compound 0.0316 µM, first compound 0.0316 µM",102%
same,"viability, T/C","second compound 0.0316 µM, first compound 0.1 µM",78.8%
same,"viability, T/C","second compound 0.0316 µM, first compound 0.316 µM",78.5%
same,"viability, T/C","second compound 0.0316 µM, first compound 1 µM",82.1%
same,"viability, T/C","second compound 0.0316 µM, first compound 3.16 µM",76.5%
same,"viability, T/C","second compound 0.0316 µM, first compound 10 µM",66.5%
same,"viability, T/C","second compound 0.1 µM, first compound 0.0316 µM",103%
same,"viability, T/C","second compound 0.1 µM, first compound 0.1 µM",86.2%
same,"viability, T/C","second compound 0.1 µM, first compound 0.316 µM",91.1%
same,"viability, T/C","second compound 0.1 µM, first compound 1 µM",76%
same,"viability, T/C","second compound 0.1 µM, first compound 3.16 µM",73.4%
same,"viability, T/C","second compound 0.1 µM, first compound 10 µM",70.4%
same,"viability, T/C","second compound 0.316 µM, first compound 0.0316 µM",95%
same,"viability, T/C","second compound 0.316 µM, first compound 0.1 µM",87.8%
same,"viability, T/C","second compound 0.316 µM, first compound 0.316 µM",88.3%
same,"viability, T/C","second compound 0.316 µM, first compound 1 µM",79.4%
same,"viability, T/C","second compound 0.316 µM, first compound 3.16 µM",79.3%
same,"viability, T/C","second compound 0.316 µM, first compound 10 µM",72.8%
same,"viability, T/C","second compound 1 µM, first compound 0.0316 µM",91.8%
same,"viability, T/C","second compound 1 µM, first compound 0.1 µM",91.4%
same,"viability, T/C","second compound 1 µM, first compound 0.316 µM",95%
same,"viability, T/C","second compound 1 µM, first compound 1 µM",88.5%
same,"viability, T/C","second compound 1 µM, first compound 3.16 µM",77.7%
same,"viability, T/C","second compound 1 µM, first compound 10 µM",79.1%
same,"viability, T/C","second compound 3.16 µM, first compound 0.0316 µM",98.7%
same,"viability, T/C","second compound 3.16 µM, first compound 0.1 µM",107%
same,"viability, T/C","second compound 3.16 µM, first compound 0.316 µM",94.2%
same,"viability, T/C","second compound 3.16 µM, first compound 1 µM",83%
same,"viability, T/C","second compound 3.16 µM, first compound 3.16 µM",84.5%
same,"viability, T/C","second compound 3.16 µM, first compound 10 µM",73.3%
same,"viability, T/C","second compound 10 µM, first compound 0.0316 µM",117%
same,"viability, T/C","second compound 10 µM, first compound 0.1 µM",96.7%
same,"viability, T/C","second compound 10 µM, first compound 0.316 µM",89.6%
same,"viability, T/C","second compound 10 µM, first compound 1 µM",78.2%
same,"viability, T/C","second compound 10 µM, first compound 3.16 µM",88.1%
same,"viability, T/C","second compound 10 µM, first compound 10 µM",73.4%
CC1COCCN1c1cc(C2(S(C)(=N)=O)CC2)nc(-c2ccnc3[nH]ccc23)n1 (stereo unspecified),"viability, T/C",compound 0.0316 µM,102% (2×) and 110%
same,"viability, T/C",compound 0.1 µM,90% and 103% and 101%
same,"viability, T/C",compound 0.316 µM,97% and 97.9% and 103%
same,"viability, T/C",compound 1 µM,90.6% and 100% and 91.6%
same,"viability, T/C",compound 3.16 µM,59.7% and 64.2% and 56.4%
same,"viability, T/C",compound 10 µM,31.6% and 37.1% and 31.1%
same,IC50,curve of compound,4.7 µM and 5.78 µM and 4.21 µM
COc1cccc(OCCCN)c1-c1cc(Nc2cnc(C#N)cn2)n[nH]1,"viability, T/C",compound 0.00316 µM,96.6% and 99.2% and 101%
same,"viability, T/C",compound 0.0316 µM,33% and 47.4% and 44%
same,"viability, T/C",compound 0.1 µM,32.7% and 40.1% and 36.7%
same,"viability, T/C",compound 0.316 µM,32.7% and 38.2% and 35.7%
same,"viability, T/C",compound 1 µM,28.8% and 37.6% and 34.5%
same,IC50,curve of compound,0.0153 µM and 0.0294 µM and 0.0264 µM
O=c1[nH]cc(F)c(=O)[nH]1,"viability, T/C",compound 0.0316 µM,92.8% and 104% and 97.2%
same,"viability, T/C",compound 0.1 µM,88.4% and 98% and 84.1%
same,"viability, T/C",compound 0.316 µM,81.6% and 85.3% and 79.5%
same,"viability, T/C",compound 1 µM,79.2% and 93.5% and 73.6%
same,"viability, T/C",compound 3.16 µM,86.3% and 94.5% and 74.5%
same,"viability, T/C",compound 10 µM,76.5% and 86% and 63.1%
same,IC50,curve of compound,> 10 µM
COc1ccc([C@@H](O)c2cc(-c3ncnc4cc(N5CCOCC5)ccc34)c(F)cc2Cl)nn1,"viability, T/C",compound 0.0316 µM,105% and 101% and 113%
same,"viability, T/C",compound 0.1 µM,93.6% and 91.3% and 99.9%
same,"viability, T/C",compound 0.316 µM,100% and 94.7% and 106%
same,"viability, T/C",compound 1 µM,77.6% and 101% and 102%
same,"viability, T/C",compound 3.16 µM,83% and 75.1% and 92.5%
same,"viability, T/C",compound 10 µM,54.5% and 64.9% and 65.9%
same,IC50,curve of compound,> 10 µM
